Results: patent US8349371B2, “Method for anti-oxidation, inhibiting activity and/or expression of matrix metalloproteinase, and/or inhibiting phosphorylation of mitogen-activated protein kinase using neonauclea reticulata leaf extracts” (China Medical University, priority 2010, dated 2013)
Values joined by “and” are separate entries in the source; they are usually repeats but may differ in a detail not shown here. Equal entries are not always repeated.

Experiments:
MMP-1 = test: Inhibition test of matrix metalloproteinase expression in UVB-irradiated fibroblast Hs68 (western blotting): MMP-1; assay type: cell-based, human; conditions: expression relative to control group (1.00); UVB 40 mJ/cm^2, Hs68; 10 μg/mL
Protocol: (§1) A total of 5×10^5 fibroblast Hs68 (human foreskin fibroblast, Bioresource Collection and Research Center (BCRC) number:60038, purchased from Food Industry Research and Development Institute (FIRDI)) was counted and cultivated in a culture medium (90% Dulbecco's modified Eagle's medium adjusted with 4 mM of L-glutamine, containing 1.5 g/L NaHCO3, 4.5 g/L glucose, and 10% heat-inactivated fetal bovine serum) with a diameter of 10 cm. After the fibroblast Hs68 grew to a density of 80%, the culture solution was removed, and the cells were rinsed with 5 mL of a phosphate buffer saline (PBS) solution once. Then, 3 mL of a phenol red-free culture solution containing the Neonauclea reticulata leaf water extract with different concentrations ([…]) was added into the culture medium, and was reacted for 1 hour. The cells were placed under ultraviolet light (40 mJ/cm^2, Ultraviolet B (UVB)) for irradiation. […] Using luminescence imaging technology with an associated analysis software and LAS-4000 (FUJIFILM) to record the image, and a quantitative analysis was carried out by multi Gauge […] […]

MMP-3 = test: Inhibition test of matrix metalloproteinase expression in UVB-irradiated fibroblast Hs68 (western blotting): MMP-3; assay type: cell-based, human; conditions: expression relative to control group (1.00); UVB 40 mJ/cm^2, Hs68; 10 μg/mL
Protocol: as §1

MMP-9 = test: Inhibition test of matrix metalloproteinase expression in UVB-irradiated fibroblast Hs68 (western blotting): MMP-9; assay type: cell-based, human; conditions: expression relative to control group (1.00); UVB 40 mJ/cm^2, Hs68; 10 μg/mL
Protocol: as §1

[1] = Anti-oxidation test: DPPH free radicals removal test; assay type: biochemical; conditions: DPPH scavenging, 50 μg/mL
Protocol: A 100 μL of the Neonauclea reticulata leaf water extract, methanol extract, or the hydrolytes thereof with different concentrations (10 to 100 μg/mL) and a 100 μL. DPPH solution (200 μM) dissolved in methanol were added in a 96-well microplate, and were mixed evenly and placed under 37° C. away from light for 30 minutes. The absorbance of the mixture was determined by an enzyme immunoassay instrument under a wavelength of 517 nm. In this test, the extract was replaced by 50 vol % propylene glycol as the control group, and ascorbic acid (vitamin C) was used as a positive control group, and DPPH was replaced by methanol for determining the background value. The ability of the Neonauclea reticulata leaf extract to remove free radicals was calculated by the following formula. The results are shown in Table 5 to Table 7 and FIG. 12 to FIG. 14. [formula]

Row | Structure (SMILES) | MMP-1 (MMP-1) | MMP-3 (MMP-3) | MMP-9 (MMP-9) | Inhibition ([1]; Table 5) | Inhibition Rate ([1]; Tables 6 and 7)
1 | O=C(O[C@@H]1Cc2c(O)cc(O)cc2O[C@@H]1c1cc(O)c(O)c(O)c1)c1cc(O)c(O)c(O)c1 [EGCG] | 1.10 ± 0.15 | 1.15 ± 0.16 | 0.95 ± 0.26 | – | –
2 | O=C1O[C@H]([C@@H](O)CO)C(O)=C1O [Vitamin C, ascorbic acid] | – | – | – | 98.60 ± 0.32 | 88.36 ± 2.71 and 97.99 ± 0.12
